Values quoted from earlier work in patent US20080226715A1, “THERAPEUTIC COMPOSITIONS AND METHODS” (priority 2007, published 2008).

How the values were obtained:
[1] = after oral dosing; normal subjects
[2] = in vivo

| time of peak plasma concentrations [1] | bioavailability [2] | pharmacokinetics half-life [2] | SMILES |
| --- | --- | --- | --- |
| about 1 hour |  |  | CC(=O)Nc1ccc(O)cc1 [acetaminophen] |
|  | 95% | 42 to 50 h | O=C(O)CCc1nc(-c2ccccc2)c(-c2ccccc2)o1 [Oxaprozin] |
| about 1 hour |  |  | CC(=O)Oc1ccccc1C(=O)O [aspirin] |
